Measured values published in ChEMBL document CHEMBL5625223 (Eur J Med Chem, 2023).
Calls of active or inactive are those of the source. The rule behind the calls is not given here.

Assays:
[1] = target: T1, 5-hydroxytryptamine receptor 2B (Homo sapiens, UniProt P41595); experiment: Agonist activity at human 5HT2B receptor expressed in human Flp-In-293 cells assessed as beta-arrestin1 recruitment measured for 60 mins by BRET assay; format: functional, cell-based
[2] = target: T1, 5-hydroxytryptamine receptor 2B; experiment: Agonist activity at human 5HT2B receptor expressed in human Flp-In-293 cells assessed as Gq-mediated calcium flux measured for 60 mins by BRET assay; format: functional, cell-based
[3] = target: T1, 5-hydroxytryptamine receptor 2B; experiment: Displacement of [3H]-LSD from human 5-HT2B receptor expressed in HEK cells assessed as inhibition constant incubated for 1 hr; format: cell-based
[4] = target: T2, Adenosine receptor A3 (Homo sapiens) (UniProt P0DMS8); experiment: Displacement of […] from human A3AR expressed in HEK cells at 10 uM relative to control; format: cell-based; conditions: filed as agonist
T2 sequence (whole entry): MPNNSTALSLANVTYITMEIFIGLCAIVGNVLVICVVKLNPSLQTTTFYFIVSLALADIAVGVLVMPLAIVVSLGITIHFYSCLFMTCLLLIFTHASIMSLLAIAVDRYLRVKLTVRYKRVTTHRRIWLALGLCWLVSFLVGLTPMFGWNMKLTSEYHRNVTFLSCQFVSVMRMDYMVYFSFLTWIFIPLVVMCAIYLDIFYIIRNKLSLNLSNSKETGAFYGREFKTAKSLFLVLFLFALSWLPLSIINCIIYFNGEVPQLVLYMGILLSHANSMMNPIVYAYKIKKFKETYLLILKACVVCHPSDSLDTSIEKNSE

[5] = target: T1, 5-hydroxytryptamine receptor 2B; conditions: Flp-In-T-REx-293, filed as antagonist, time 1.0 hrs
[6] = target: T1, 5-hydroxytryptamine receptor 2B; experiment: Agonist activity at human 5HT2B receptor expressed in human Flp-In-293 cells assessed as beta-arrestin2 recruitment measured for 60 mins by BRET assay; format: functional, cell-based
[7] = target: Adenosine receptor A2a (Homo sapiens) (UniProt P29274); experiment: Displacement of […] from human A2AR expressed in HEK cells at 10 uM relative to control; format: cell-based
[8] = target: T3, 5-hydroxytryptamine receptor 2A (Homo sapiens, UniProt P28223); conditions: Flp-In-T-REx-293, time 1.0 hrs
Homo sapiens = organism: Homo sapiens; experiment: Selectivity ratio of Kb for antagonist activity at human 5HT2B receptor to Kb for antagonist activity at human 5HT2C receptor
[9] = target: T4, 5-hydroxytryptamine receptor 2C (Homo sapiens) (UniProt P28335); conditions: Flp-In-T-REx-293, filed as antagonist, time 1.0 hrs
T4 sequence (whole entry): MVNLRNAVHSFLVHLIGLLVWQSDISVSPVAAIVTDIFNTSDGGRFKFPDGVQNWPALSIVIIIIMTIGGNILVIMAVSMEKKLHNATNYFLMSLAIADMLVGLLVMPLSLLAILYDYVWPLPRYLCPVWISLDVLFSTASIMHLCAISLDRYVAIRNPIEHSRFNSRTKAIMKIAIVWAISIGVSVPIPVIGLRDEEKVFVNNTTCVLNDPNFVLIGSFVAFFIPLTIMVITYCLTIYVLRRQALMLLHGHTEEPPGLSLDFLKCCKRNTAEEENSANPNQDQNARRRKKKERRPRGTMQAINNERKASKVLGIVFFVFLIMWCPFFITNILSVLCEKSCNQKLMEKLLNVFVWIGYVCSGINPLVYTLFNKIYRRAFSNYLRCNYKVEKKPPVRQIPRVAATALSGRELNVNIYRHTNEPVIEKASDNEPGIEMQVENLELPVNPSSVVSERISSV

Adenosine receptor A1 = target: T5, Adenosine receptor A1 (Homo sapiens, UniProt P30542); experiment: Displacement of […] from human A1AR expressed in Flp-In-T-REx-293 cells assessed as inhibition constant; format: cell-based
T5 sequence (P30542 whole entry): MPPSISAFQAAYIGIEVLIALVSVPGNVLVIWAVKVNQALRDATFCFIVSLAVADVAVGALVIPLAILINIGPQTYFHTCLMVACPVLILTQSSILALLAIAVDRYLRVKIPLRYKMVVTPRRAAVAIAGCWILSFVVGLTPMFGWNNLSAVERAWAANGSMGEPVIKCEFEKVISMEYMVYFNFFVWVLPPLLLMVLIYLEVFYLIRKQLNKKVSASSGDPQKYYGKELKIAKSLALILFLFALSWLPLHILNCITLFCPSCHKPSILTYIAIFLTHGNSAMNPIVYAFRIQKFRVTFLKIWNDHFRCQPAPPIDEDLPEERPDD

[10] = target: T6, 5-hydroxytryptamine receptor 2C (Homo sapiens, UniProt P28335); experiment: Displacement of [3H]-Mesulergine from human 5-HT2C expressed in Flp-In-T-REx-293 cells assessed as inhibition constant incubated for 1 hr; format: cell-based; conditions: read-out: Ki
T6 sequence (P28335 whole entry): T4 sequence (whole entry)

[11] = target: T3, 5-hydroxytryptamine receptor 2A; experiment: Displacement of [3H]ketanserin from human 5-HT2A receptor expressed in HEK293 cells at 10 uM incubated for 1 hr relative to control; format: cell-based
Histamine H1 receptor = Histamine H1 receptor (Homo sapiens, UniProt P35367); experiment: Binding affinity to histamine H1 receptor (unknown origin) assessed as inhibition constant
Adenosine receptor A3 = target: T7, Adenosine receptor A3 (Homo sapiens, UniProt P0DMS8); experiment: Displacement of […] from human A3AR expressed in HEK cells assessed as inhibition constant; format: cell-based
T7 sequence (P0DMS8 whole entry): T2 sequence (whole entry)

[12] = target: T3, 5-hydroxytryptamine receptor 2A; experiment: Binding affinity to 5HT2A receptor (unknown origin) at 10 uM relative to control
Translocator protein = Translocator protein (Homo sapiens, UniProt P30536); experiment: Binding affinity to TSPO (unknown origin) assessed as inhibition constant
[13] = target: Beta-3 adrenergic receptor (Homo sapiens, UniProt P13945); experiment: Binding affinity to beta3 adrenergic receptor (unknown origin) assessed as inhibition constant
[14] = target: T4, 5-hydroxytryptamine receptor 2C (Homo sapiens); experiment: Displacement of [3H]-Mesulergine from human 5-HT2C expressed in Flp-In-T-REx-293 cells at 10 uM incubated for 1 hr relative to control; format: cell-based; conditions: filed as antagonist
[15] = target: T8, Alpha-2C adrenergic receptor (Homo sapiens, UniProt P18825); experiment: Binding affinity to alpha2C receptor (unknown origin) assessed as inhibition constant
T8 sequence (P18825 whole entry): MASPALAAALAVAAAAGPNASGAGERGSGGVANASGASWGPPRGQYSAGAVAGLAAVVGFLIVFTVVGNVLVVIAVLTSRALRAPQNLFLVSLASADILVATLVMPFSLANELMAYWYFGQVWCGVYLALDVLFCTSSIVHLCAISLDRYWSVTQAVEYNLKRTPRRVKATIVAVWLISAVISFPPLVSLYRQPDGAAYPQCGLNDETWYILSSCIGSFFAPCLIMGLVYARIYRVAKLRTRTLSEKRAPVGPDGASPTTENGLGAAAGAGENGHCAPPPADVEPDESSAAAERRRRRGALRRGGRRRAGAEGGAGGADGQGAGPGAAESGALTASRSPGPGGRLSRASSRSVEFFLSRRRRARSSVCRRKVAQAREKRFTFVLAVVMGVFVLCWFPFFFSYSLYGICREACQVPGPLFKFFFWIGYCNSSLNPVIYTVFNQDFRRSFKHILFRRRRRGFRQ

[16] = target: 5-hydroxytryptamine receptor 1D (Homo sapiens, UniProt P28221); experiment: Binding affinity to 5HT1D receptor (unknown origin) assessed as inhibition constant
D(4) dopamine receptor = target: T9, D(4) dopamine receptor (Homo sapiens, UniProt P21917); experiment: Binding affinity to dopamine D4 receptor (unknown origin) assessed as inhibition constant
T9 sequence (P21917 whole entry): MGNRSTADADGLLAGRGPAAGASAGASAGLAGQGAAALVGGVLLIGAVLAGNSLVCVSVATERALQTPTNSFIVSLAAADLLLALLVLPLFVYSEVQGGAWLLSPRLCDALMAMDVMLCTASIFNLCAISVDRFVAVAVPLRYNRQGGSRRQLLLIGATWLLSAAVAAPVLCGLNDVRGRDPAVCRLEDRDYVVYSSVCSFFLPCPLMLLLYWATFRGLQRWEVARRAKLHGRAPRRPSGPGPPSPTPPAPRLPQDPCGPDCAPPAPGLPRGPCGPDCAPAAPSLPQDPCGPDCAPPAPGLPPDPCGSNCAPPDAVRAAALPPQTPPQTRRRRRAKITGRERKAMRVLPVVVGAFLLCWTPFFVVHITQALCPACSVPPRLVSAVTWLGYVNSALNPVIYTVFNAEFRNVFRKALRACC

T1 sequence (P41595 whole entry): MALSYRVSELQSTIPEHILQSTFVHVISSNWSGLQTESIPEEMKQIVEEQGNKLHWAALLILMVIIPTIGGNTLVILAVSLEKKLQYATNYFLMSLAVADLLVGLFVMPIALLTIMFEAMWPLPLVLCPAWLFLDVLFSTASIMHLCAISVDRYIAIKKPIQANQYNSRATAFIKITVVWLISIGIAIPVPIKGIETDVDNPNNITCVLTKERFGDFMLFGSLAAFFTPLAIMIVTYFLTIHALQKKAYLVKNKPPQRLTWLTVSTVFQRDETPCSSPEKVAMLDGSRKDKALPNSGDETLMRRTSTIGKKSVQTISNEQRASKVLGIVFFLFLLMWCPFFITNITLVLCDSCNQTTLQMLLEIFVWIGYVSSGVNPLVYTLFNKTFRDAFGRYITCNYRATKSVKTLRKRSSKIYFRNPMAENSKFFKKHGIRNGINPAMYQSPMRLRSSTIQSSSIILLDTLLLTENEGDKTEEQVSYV
T3 sequence (P28223 whole entry): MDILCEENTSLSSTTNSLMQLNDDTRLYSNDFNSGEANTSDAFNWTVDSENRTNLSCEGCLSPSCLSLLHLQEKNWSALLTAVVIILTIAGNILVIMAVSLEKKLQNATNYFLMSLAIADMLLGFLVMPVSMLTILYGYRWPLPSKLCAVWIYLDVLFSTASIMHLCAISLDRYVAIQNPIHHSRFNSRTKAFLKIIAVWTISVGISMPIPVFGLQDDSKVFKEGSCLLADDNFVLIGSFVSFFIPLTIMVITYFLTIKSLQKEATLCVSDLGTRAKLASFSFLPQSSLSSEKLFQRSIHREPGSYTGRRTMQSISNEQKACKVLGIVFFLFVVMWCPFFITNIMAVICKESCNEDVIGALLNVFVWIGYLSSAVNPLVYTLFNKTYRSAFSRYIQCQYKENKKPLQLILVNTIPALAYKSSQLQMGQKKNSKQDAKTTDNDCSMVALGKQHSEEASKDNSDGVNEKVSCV
Adenosine receptor A2a (Homo sapiens), sequence (P29274 whole entry): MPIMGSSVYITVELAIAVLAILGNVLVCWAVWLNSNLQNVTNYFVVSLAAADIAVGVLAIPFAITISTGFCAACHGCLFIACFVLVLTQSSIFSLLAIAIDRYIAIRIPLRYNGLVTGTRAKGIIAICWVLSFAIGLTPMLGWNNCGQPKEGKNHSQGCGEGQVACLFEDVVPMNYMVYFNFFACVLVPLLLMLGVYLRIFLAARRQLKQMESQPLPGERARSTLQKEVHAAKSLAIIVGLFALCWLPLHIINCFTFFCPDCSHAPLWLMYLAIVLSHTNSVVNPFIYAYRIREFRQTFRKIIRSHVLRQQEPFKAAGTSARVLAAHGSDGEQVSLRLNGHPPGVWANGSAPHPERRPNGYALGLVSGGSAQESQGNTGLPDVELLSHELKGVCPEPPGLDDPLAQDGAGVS
Translocator protein, sequence (P30536 whole entry): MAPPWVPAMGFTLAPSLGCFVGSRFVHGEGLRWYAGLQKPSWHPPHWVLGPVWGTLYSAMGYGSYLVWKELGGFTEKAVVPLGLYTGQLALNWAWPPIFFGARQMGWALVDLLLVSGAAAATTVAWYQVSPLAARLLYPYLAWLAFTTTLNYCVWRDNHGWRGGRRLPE
Histamine H1 receptor, sequence (P35367 whole entry): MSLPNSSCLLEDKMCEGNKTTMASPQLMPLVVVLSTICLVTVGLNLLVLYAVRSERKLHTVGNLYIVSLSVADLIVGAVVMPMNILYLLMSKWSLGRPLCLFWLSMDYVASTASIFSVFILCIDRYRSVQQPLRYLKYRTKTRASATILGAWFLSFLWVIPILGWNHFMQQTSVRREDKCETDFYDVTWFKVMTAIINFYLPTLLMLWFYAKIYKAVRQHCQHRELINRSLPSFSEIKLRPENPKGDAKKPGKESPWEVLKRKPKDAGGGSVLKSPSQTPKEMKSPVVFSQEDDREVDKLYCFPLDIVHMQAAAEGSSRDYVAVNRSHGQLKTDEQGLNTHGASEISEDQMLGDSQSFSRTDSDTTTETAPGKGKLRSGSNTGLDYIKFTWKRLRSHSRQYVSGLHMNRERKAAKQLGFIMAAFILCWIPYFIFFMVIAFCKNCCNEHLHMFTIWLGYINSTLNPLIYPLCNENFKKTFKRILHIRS
Beta-3 adrenergic receptor, sequence (P13945 whole entry): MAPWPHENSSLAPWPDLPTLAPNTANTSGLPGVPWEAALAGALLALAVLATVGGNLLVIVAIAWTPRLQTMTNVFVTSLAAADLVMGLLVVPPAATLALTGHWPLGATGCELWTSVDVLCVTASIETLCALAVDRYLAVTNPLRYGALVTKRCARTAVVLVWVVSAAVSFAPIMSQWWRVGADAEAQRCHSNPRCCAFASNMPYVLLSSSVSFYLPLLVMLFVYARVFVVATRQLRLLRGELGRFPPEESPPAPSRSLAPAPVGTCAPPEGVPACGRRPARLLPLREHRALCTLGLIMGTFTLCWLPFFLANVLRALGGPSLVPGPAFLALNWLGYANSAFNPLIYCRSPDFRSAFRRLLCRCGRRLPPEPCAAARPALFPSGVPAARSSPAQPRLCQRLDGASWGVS
5-hydroxytryptamine receptor 1D, sequence (P28221 whole entry): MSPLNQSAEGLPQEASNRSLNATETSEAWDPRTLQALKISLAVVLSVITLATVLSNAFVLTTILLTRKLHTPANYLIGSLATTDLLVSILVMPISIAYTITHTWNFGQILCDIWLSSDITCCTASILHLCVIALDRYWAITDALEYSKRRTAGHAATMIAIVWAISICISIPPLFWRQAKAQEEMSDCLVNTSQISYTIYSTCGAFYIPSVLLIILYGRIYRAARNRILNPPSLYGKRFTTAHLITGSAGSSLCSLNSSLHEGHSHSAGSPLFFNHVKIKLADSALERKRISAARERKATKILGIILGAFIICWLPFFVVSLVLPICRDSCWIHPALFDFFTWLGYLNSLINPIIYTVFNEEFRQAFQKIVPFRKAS

With `CCOC(=O)[C@@]12C[C@@H]1[C@@H](n1cnc3c(N[C@H](C4CCC4)C4CC4)nc(I)nc31)[C@H](O)[C@@H]2O` the Activity [1] was “inactive”, the Activity [2] was “inactive” and the Ki [3] was 33 nM. The Activity [4] was 83%, the pKb [5] was 8.76 and the Activity [6] was “inactive”. It also gave an Activity [7] of 15%, a pKb [8] of less than 5 and a Ratio (Homo sapiens) of 44.7. The pKb [9] was 7.11, the Ki (Adenosine receptor A1) was 2180 nM and the Ki [10] was 331 nM. The Activity [11] was 13%.
`OC[C@@]12C[C@@H]1[C@@H](n1cnc3c(N[C@@H](C4CCC4)C4CC4)nc(I)nc31)[C@H](O)[C@@H]2O` gave a Ki (Histamine H1 receptor) of 2100 nM, an Activity [4] of 42% and a pKb [8] of less than 5. It also gave a pKb [9] of 6.83, a Ki (Adenosine receptor A1) of 63.9 nM and a Ki [10] of 552 nM. For the same molecule, the Activity [11] was 26%.
`OC[C@@]12C[C@@H]1[C@@H](n1cnc3c(NC(C4CCC4)C4CCC4)nc(I)nc31)[C@H](O)[C@@H]2O` showed a Ki (Adenosine receptor A3) of 34300 nM, an Activity [12] of 16% and a Ki (Translocator protein) of 2100 nM. The Activity [7] was 37% and the Ki (Adenosine receptor A1) was 204 nM.
`CCSC[C@@]12C[C@@H]1[C@@H](n1cnc3c(NC(C4CCCC4)C4CCCC4)nc(Cl)nc31)[C@H](O)[C@@H]2O` showed a Ki [13] of 1500 nM, a Ki (Adenosine receptor A3) of 6280 nM and an Activity [14] of 47%. The Ki [15] was 2100 nM, the Activity [7] was -48% and the Ki [16] was 5200 nM. The Ki (D(4) dopamine receptor) was 3600 nM and the Activity [11] was 38%.
